Data from ChEMBL document CHEMBL1201862, “PubChem BioAssay data set” (2004).
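A five-concentration, 48-hour dose response in 96-well plates underlies each endpoint, interpolated linearly between surrounding concentrations. The concentration for 50% growth inhibition is given as GI50.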 Activity calls are given as the source filed them. No stated cut-off is given here; in the data, active = GI50 up to about 1.1 µM and inactive = higher.

Key:
Assay in all cases: NCI tumour cell line growth inhibition, 48 h
MCF7 = test system: MCF7
LOX IMVI = test system: LOX IMVI
NCI-H522 = test system: NCI-H522
SN12C = test system: SN12C
SNB-19 = test system: SNB-19
K562 = test system: K562
IGROV-1 = test system: IGROV-1
SF-268 = test system: SF-268
NCI/ADR-RES = test system: NCI/ADR-RES
OVCAR-5 = test system: OVCAR-5
SK-MEL-2 = test system: SK-MEL-2
NCI-H226 = test system: NCI-H226
HT-29 = test system: HT-29
UO-31 = test system: UO-31
HOP-62 = test system: HOP-62
SK-OV-3 = test system: SK-OV-3
RPMI-8226 = test system: RPMI-8226
KM12 = test system: KM12
NCI-H460 = test system: NCI-H460
A498 = test system: A498

Measured: GI50

N=C1/C(=C/c2ccccc2)C(=O)N=C2SC=NN12
inactive: MCF7 > 100 µM | LOX IMVI > 100 µM | NCI-H522 > 100 µM | SN12C > 100 µM | SNB-19 > 100 µM | K562 > 100 µM | IGROV-1 > 100 µM | SF-268 > 100 µM | NCI/ADR-RES > 100 µM | OVCAR-5 > 100 µM | SK-MEL-2 > 100 µM | NCI-H226 > 100 µM | HT-29 > 100 µM | UO-31 > 100 µM | HOP-62 > 100 µM | SK-OV-3 > 100 µM | RPMI-8226 > 100 µM | KM12 > 100 µM | NCI-H460 > 100 µM

Cc1c(C2CCSc3ccccc3N2)sc2ccccc12 (stereo unspecified)
inactive: MCF7 62.2 µM | LOX IMVI > 100 µM | NCI-H522 47 µM | SN12C > 100 µM | SNB-19 > 100 µM | K562 51.5 µM | IGROV-1 > 100 µM | SF-268 > 100 µM | NCI/ADR-RES 46 µM | SK-MEL-2 > 100 µM | NCI-H226 > 100 µM | HT-29 54.8 µM | UO-31 52.5 µM | HOP-62 > 100 µM | SK-OV-3 > 100 µM | RPMI-8226 > 100 µM | KM12 65.6 µM | NCI-H460 90.2 µM

Cc1cn(CCCCCOC(=O)NC(CCCNC(=N)N)C(=O)O)c(=O)[nH]c1=O (stereo unspecified)
inactive: MCF7 54.7 µM | LOX IMVI 53.6 µM | SN12C 56.8 µM | SNB-19 40.8 µM | A498 24.9 µM | K562 16.1 µM | IGROV-1 38.1 µM | SF-268 > 100 µM | NCI/ADR-RES 23.1 µM | OVCAR-5 > 100 µM | SK-MEL-2 > 100 µM | NCI-H226 30.3 µM | HT-29 24.2 µM | UO-31 > 100 µM | HOP-62 > 100 µM | SK-OV-3 48.9 µM | RPMI-8226 11.7 µM | KM12 19 µM | NCI-H460 38.2 µM
